Data reported in publication PMC12543283, “TastepepAI: An artificial intelligence platform for taste peptide de novo design” (PLOS Computational Biology, 2025).
Ends that are not written are not given here.

Tests used:
[1] = Electronic tongue analysis (Taste-Sensing System SA 402B); parameters: unit not given here; conditions: reference solution 30 mM KCl + 0.3 mM tartaric acid as baseline, first measurement excluded; for Umami: sensor AAE; for Umami / Bitter / Sweet: detection threshold 0, room temperature; for Umami / Bitter / Sour / Salty: four replicates; for Sour: detection threshold -13, room temperature; for Salty: detection threshold -6, room temperature; for Sweet: measured five times
How it was run: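 Samples were tested at 0.1 and 1.0 mg/mL on an SA 402B e-tongue fitted with sourness, saltiness, bitterness, sweetness and umami sensors, with 30 mM KCl/0.3 mM tartaric acid as reference and baseline. Thresholds were −13 for sour, −6 for salty and 0 for the rest. Runs at room temperature: four replicates, five for sweetness, first reading discarded.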

[2] = system: human umbilical vein endothelial cells (HUVEC)
[3] = system: human bronchial epithelial cells (BEAS-2B)
[4] = system: human embryonic kidney cells (HEK293T)
[5] = system: human pancreatic ductal epithelial cells (HPNE)

Substance	Umami ([1]; peptide 0.1 mg/mL)	Umami ([1]; peptide 1 mg/mL)	Bitter ([1]; sensor C00, peptide 0.1 mg/mL)	Bitter ([1]; sensor C00, peptide 1 mg/mL)	Sour ([1]; sensor CA0, peptide 0.1 mg/mL)	Sour ([1]; sensor CA0, peptide 1 mg/mL)	Salty ([1]; sensor CT0, peptide 0.1 mg/mL)	Salty ([1]; sensor CT0, peptide 1 mg/mL)	Sweet ([1]; sensor GL1, peptide 0.1 mg/mL)	Sweet ([1]; sensor GL1, peptide 1 mg/mL)	Average cell viability, HUVEC [2]	Cell viability, HUVEC, Data1 [2]	Cell viability, HUVEC, Data2 [2]	Cell viability, HUVEC, Data3 [2]	Average cell viability, BEAS-2B [3]	Cell viability, BEAS-2B, Data1 [3]	Cell viability, BEAS-2B, Data2 [3]	Cell viability, BEAS-2B, Data3 [3]	Average cell viability, HEK293T [4]	Cell viability, HEK293T, Data1 [4]	further results
NNDDEES [TaPep50]	2.11	-3.90	7.18	4.27	-4.45	9.63	-22.53	3.54	7.42	-3.07	105.59	101.94	108.73	106.09	104.39	104.29	103.89	104.99	101.39	105.62	Cell viability, HEK293T, Data2 [4]: 98.99; Cell viability, HEK293T, Data3 [4]: 99.56; Average cell viability, HPNE [5]: 98.30; Cell viability, HPNE, Data1 [5]: 106.02; Cell viability, HPNE, Data2 [5]: 107.52; Cell viability, HPNE, Data3 [5]: 81.36
PPLENT [TaPep39]	0.99	-5.89	7.69	2.99	-1.65	15.66	-18.68	12.96	6.53	-7.82	107.56	101.22	113.36	108.09	115.22	118.05	113.86	113.76	100.06	96.81	Cell viability, HEK293T, Data2 [4]: 97.19; Cell viability, HEK293T, Data3 [4]: 106.18; Average cell viability, HPNE [5]: 99.87; Cell viability, HPNE, Data1 [5]: 95.44; Cell viability, HPNE, Data2 [5]: 90.95; Cell viability, HPNE, Data3 [5]: 113.21
PTELESD [TaPep41]	1.88	-3.94	7.34	3.91	-3.84	9.16	-20.79	2.54	8.41	-8.94	103.09	108.17	102.98	98.11	110.80	117.85	114.36	100.20	106.18	94.54	Cell viability, HEK293T, Data2 [4]: 110.54; Cell viability, HEK293T, Data3 [4]: 113.47; Average cell viability, HPNE [5]: 95.94; Cell viability, HPNE, Data1 [5]: 86.16; Cell viability, HPNE, Data2 [5]: 113.91; Cell viability, HPNE, Data3 [5]: 87.75
SAANT [TaPep31]	1.69	-4.82	7.84	2.76	-3.49	12.70	-19.57	12.57	8.41	-5.90	99.39	91.56	100.67	105.93	110.70	118.64	100.10	113.36	99.34	102.02	Cell viability, HEK293T, Data2 [4]: 100.41; Cell viability, HEK293T, Data3 [4]: 95.58; Average cell viability, HPNE [5]: 100.40; Cell viability, HPNE, Data1 [5]: 105.82; Cell viability, HPNE, Data2 [5]: 112.81; Cell viability, HPNE, Data3 [5]: 82.56
SEGIQ [TaPep70]	1.63	-4.00	7.38	3.77	-3.33	10.04	-20.29	7.83	6.55	-3.62	107.56	113.68	110.32	98.67	104.32	109.87	102.79	100.30	99.37	100.88	Cell viability, HEK293T, Data2 [4]: 96.25; Cell viability, HEK293T, Data3 [4]: 100.98; Average cell viability, HPNE [5]: 105.19; Cell viability, HPNE, Data1 [5]: 112.61; Cell viability, HPNE, Data2 [5]: 102.83; Cell viability, HPNE, Data3 [5]: 100.13
SKKEV [TaPep65]	1.85	-4.04	7.27	4.02	-3.95	10.48	-17.33	11.34	2.66	-3.79	96.89	105.14	94.76	90.77	100.70	99.80	89.83	112.46	97.48	94.54	Cell viability, HEK293T, Data2 [4]: 99.27; Cell viability, HEK293T, Data3 [4]: 98.61; Average cell viability, HPNE [5]: 94.98; Cell viability, HPNE, Data1 [5]: 94.04; Cell viability, HPNE, Data2 [5]: 105.12; Cell viability, HPNE, Data3 [5]: 85.76
